From article PMC5642580, “Calyxin Y sensitizes cisplatin-sensitive and resistant hepatocellular carcinoma cells to cisplatin through apoptotic and autophagic cell death via SCF βTrCP-mediated eEF2K degradation” (Oncotarget, 2017) come the findings set out here.

Data set [1] concerns HepG2 cells. The data set can be described thus: MTT cell viability assay. Format: cell-based, human. Particulars: 24 h. The method, then: HepG2 and HepG2/CDDP cells were plated in 96-well plates at a density of 5000 cells in 200 μl medium per well and incubated overnight. The cells were treated with […] and/or CDDP for 24 h, 48 or 72 h. The cell viability of HepG2 and HepG2/CDDP cells was measured by MTT assay as described previously.
(Tetrazolium dyes change colour on reduction, which living cells bring about.)

The test system of data set [2] is HepG2/CDDP cells. The data set can be described thus: MTT cell viability assay. Format: cell-based, human. The procedure:
Human hepatocellular carcinoma HepG2 cells were purchased from Cell Bank of Shanghai Institute of Biochemistry and Cell Biology, Chinese Academy of Sciences (Shanghai, China). mtrDNA sequence analysis was done by the cell bank to confirm the species and cells were tested free from mycoplasma. CDDP-selected drug-resistant HepG2/CDDP cells were derived from HepG2 cells by utilizing serial passage in the presence of increasing CDDP concentrations. Briefly, cells were treated with CDDP (1 μM) for 72 h. The media and dead cells were removed, and cells were allowed to recover for a further 72 h and then were treated with a higher concentration of CDDP. This development period was carried out for approximately 6 months, and finally, we obtained the HepG2/CDDP cells. HepG2/CDDP cells were then continuously maintained in the presence of 20 μM CDDP for a further 3 months to maintain stability. All cells were cultured in DMEM media containing 10% fetal bovine serum and incubated with 100 U/ml penicillin and 100 μg/ml streptomycin (Thermo) at 37 °C under an atmosphere of 95% air and 5% CO2.
HepG2 and HepG2/CDDP cells were plated in 96-well plates at a density of 5000 cells in 200 μl medium per well and incubated overnight. The cells were treated with calyxin Y and/or CDDP for 24 h, 48 or 72 h. The cell viability of HepG2 and HepG2/CDDP cells was measured by MTT assay as described previously.

For data set [3], the system named is HepG2 cells. The data set can be described thus: Annexin V/7-AAD staining assay (flow cytometry). Format: cell-based, human. The conditions noted are these: CDDP 10 µM with or without calyxin Y 20 µM, 24 h. The procedure:
HepG2 and HepG2/CDDP cells were plated on 6-well plates and incubated overnight. Next, the cells were treated with […] and/or CDDP for 24 h. Cells in 200 μl of binding buffer were stained with 5 μl of Annexin V-Alexa Fluor 647 ([…] Biotech Co., Ltd., China) and 5 μl of 7-AAD at room temperature for 15 min. The cells were then analyzed by flow cytometry with a BD Accuri C6 flow cytometer (Becton & Dickinson Company, Franklin Lakes, NJ, USA). The cells undergoing apoptosis are Annexin V positive.

Data set [4] in a line: Hematological parameters of nude mice bearing HepG2/CDDP xenograft. Format: in vivo, BALB/c nu/nu mice. The conditions noted are these: calyxin Y 20 mg/kg i.p. every other day and/or CDDP 4 mg/kg i.p. once per week, 19 days; mean ± S.D., n = 3. The method, then: (§1) All animal procedures were performed according to comply with the ARRIVE guidelines, the U.K. Animals (Scientific Procedures) Act, 1986 and associated guidelines. The protocol was approved by the Institutional Animal Care and Use Committee at China Pharmaceutical University. Four-week-old BALB/c nu/nu mice (18-22 g) purchased from Shanghai Laboratory Animal Center of Chinese Academy of Sciences (Shanghai, China) were used for in vivo experiments. Animals were housed at a constant room temperature with a 12 h:12 h light/dark cycle and were provided a standard rodent diet and water. HepG2/CDDP cells were harvested and injected subcutaneously into the right flank (1 × 10^7 cells in 150 μl of cold PBS). […] (1) control group, mice were injected intraperitoneally (i.p.) with 10% DMSO + 90% normal saline (n = 6); (2) […] group: mice were injected i.p. with 20 mg/kg […] every other day (n = 6); (3) CDDP group: mice were injected i.p. with 4 mg/kg CDDP once per week (n = 6); (4) […] + CDDP group: mice were injected i.p. with 20 mg/kg […] every other day and 4 mg/kg CDDP once per week (n = 6). The tumor volume was determined by measuring length (l) and width (w) and calculating volume (V = 0.5 × l × w^2) at the indicated time points. At the end of treatment, the animals were sacrificed, and the tumors were removed and weighed for use in histology and protein expression studies. Using a standard saphenous vein blood collection technique, blood was drawn for hematologic and serum biochemistry analyses.

Data set [5] in a line: Hematological biochemical parameters of nude mice bearing HepG2/CDDP xenograft. The conditions noted are these: calyxin Y 20 mg/kg i.p. every other day and/or CDDP 4 mg/kg i.p. once per week, 19 days; mean ± S.D., n = 3. Format: in vivo, BALB/c nu/nu mice. The method, then:
as §1

Data set [6] deals with HepG2/CDDP cells. The data set can be described thus: Western blot of cleaved caspase-3/7/PARP. Type of data set: cell-based, human. Particulars: CDDP 10 µM with or without calyxin Y 20 µM, 24 h. The text has this: The procedures for Western blotting were described previously.
The next data set has as its system eEF2K in HepG2 cells. Particulars: calyxin Y 5, 10, 20 µM, 24 h. The procedure:
(§2) HepG2 and HepG2/CDDP cells were lysed in western blotting lysis buffer and centrifuged at 12000 g for 10 min. The procedures for Western blotting were described previously.

The test system of data set [7] is eEF2K in HepG2/CDDP cells. Particulars: calyxin Y 5, 10, 20 µM, 24 h. The method, then:
as §2

For data set [8], the system named is eEF2K mRNA in HepG2 cells. The conditions noted are these: calyxin Y 5, 10, 20 µM, 24 h. The method, then: (§3) Total RNA samples from HepG2 and HepG2/CDDP cells were extracted using RNAiso Plus reagent following the manufacturer’s protocols. RNA (1 μg) was reverse-transcribed using a ReverTra Ace qPCR RT-Kit (Toyobo Life Science, Osaka, Japan) in a MyCycler PCR system (BioRad Laboratories, Hercules, CA). SYBR Green PCR Master Mix was purchased from Toyobo Life Science. The 2^−ΔΔCT cycle threshold method was used for the calculation of relative differences in mRNA abundance with a LightCycler 480 qPCR System (Roche Molecular Biochemicals, Mannheim, Germany). Data were normalized to the expression of β-Actin. The results of qRT-PCR were expressed as fold-changes. The normalized value of the target mRNA of the control group is arbitrarily presented as 100. The pairs of primer for PCR were listed below: • eEF2K: (sense) 5′-[…]-3′; • eEF2K: (antisense) 5′-[…]-3′. • β-Actin: (sense) 5′-[…] CAATG-3′; • β-Actin: (antisense) 5′-[…]-3′.

In data set [9] the test system is eEF2K mRNA in HepG2/CDDP cells. Particulars: calyxin Y 5, 10, 20 µM, 24 h. The procedure:
as §3

By IC50 is commonly meant the concentration at which inhibition is half-maximal. Lower therefore signals inhibition by little substance. `[NH2][Pt]([NH2])([Cl])[Cl]` [CDDP, cisplatin] returned a concentration for half-maximal inhibition (IC50) in the data set on HepG2 cells [1] (MTT) of 16.7 µM. Further, in the data set on HepG2/CDDP cells [2] (HepG2/CDDP cells, 24 h, MTT), the concentration for half-maximal inhibition (IC50) stood at 95.4 µM. The same compound had a resistance index in the data set on HepG2/CDDP cells [2] (HepG2/CDDP vs HepG2, IC50 at 24 h) of around 6 fold. For the same compound, in the data set on HepG2 cells [3], the “apoptosis (AV+ cells)” value was found to be 31%. Also, in data set [4], the Hematocrit turned out to be 44.3 ± 2.8%, the Hemoglobin amounted to 126.3 ± 4.7 g/L, the Lymphocytes is listed as 8.9 ± 1.9 10^9/L and the Mean corpuscular hemoglobin turned out to be 13.4 ± 0.29 pg. In addition, in data set [4], the Mean corpuscular volume stood at 47.7 ± 3.5 fL, the Platelet counts is reported as 562.1 ± 19.2 10^9/L, the Red blood cells is recorded as 9.6 ± 0.67 10^12/L and the White blood cells is 9.9 ± 0.39 10^9/L. In data set [5], this compound came in with an Alanine aminotransferase of 40.2 ± 1.2 U/L, an Alkaline phosphatase of 125.4 ± 0.91 U/L and an Aspartate aminotransferase of 158.5 ± 5.1 U/L. Further, in the data set on HepG2/CDDP cells [6], the “cleavage of caspase-7, caspase-3 and PARP” value is reported as “did not cause the cleavage”.
Calyxin Y: in the data set on HepG2 cells [1] (calyxin Y 10, 20, 30, 40 µM), the cell viability entry was “concentration-dependent manner”. Further, in the data set with HepG2/CDDP cells [2] (HepG2/CDDP cells, calyxin Y 10, 20, 30, 40 µM, 24 h), the cell viability entry is recorded as “inhibited the viability of HepG2/CDDP cells as much as it did that of HepG2 cells in a concentration-dependent manner”. For the same compound, in data set [4], the Hematocrit is 44.1 ± 1.4%, the Hemoglobin was 138.4 ± 7.0 g/L, the Lymphocytes was 18.5 ± 1.8 10^9/L and the Mean corpuscular hemoglobin was found to be 14.5 ± 0.13 pg. Also, in data set [4], the Mean corpuscular volume is given as 47.3 ± 3.3 fL, the Platelet counts is on record as 588.5 ± 80.5 10^9/L, the Red blood cells is 11.0 ± 0.27 10^12/L and the White blood cells is 15.2 ± 2.2 10^9/L. In [5], this compound showed an Alanine aminotransferase of 37.5 ± 1.4 U/L, an Alkaline phosphatase of 115.4 ± 2.7 U/L and an Aspartate aminotransferase of 129.3 ± 3.5 U/L. Further, the eEF2K expression result in the data set with eEF2K in HepG2 cells was “reduced eEF2K expression in a dose-dependent manner”. The eEF2K expression result in data set [7] is on record as “reduced eEF2K expression in a dose-dependent manner”. For the same compound, the “eEF2K mRNA levels” value in data set [8] is given as “not significantly changed”. The “eEF2K mRNA levels” value in data set [9] is on record as “not significantly changed”.
